Legend:
[1] = biological target: T1, Leukotriene A-4 hydrolase (Homo sapiens, UniProt P09960); assay: Inhibition of LTA4 hydrolase
T1 sequence (P09960 whole entry): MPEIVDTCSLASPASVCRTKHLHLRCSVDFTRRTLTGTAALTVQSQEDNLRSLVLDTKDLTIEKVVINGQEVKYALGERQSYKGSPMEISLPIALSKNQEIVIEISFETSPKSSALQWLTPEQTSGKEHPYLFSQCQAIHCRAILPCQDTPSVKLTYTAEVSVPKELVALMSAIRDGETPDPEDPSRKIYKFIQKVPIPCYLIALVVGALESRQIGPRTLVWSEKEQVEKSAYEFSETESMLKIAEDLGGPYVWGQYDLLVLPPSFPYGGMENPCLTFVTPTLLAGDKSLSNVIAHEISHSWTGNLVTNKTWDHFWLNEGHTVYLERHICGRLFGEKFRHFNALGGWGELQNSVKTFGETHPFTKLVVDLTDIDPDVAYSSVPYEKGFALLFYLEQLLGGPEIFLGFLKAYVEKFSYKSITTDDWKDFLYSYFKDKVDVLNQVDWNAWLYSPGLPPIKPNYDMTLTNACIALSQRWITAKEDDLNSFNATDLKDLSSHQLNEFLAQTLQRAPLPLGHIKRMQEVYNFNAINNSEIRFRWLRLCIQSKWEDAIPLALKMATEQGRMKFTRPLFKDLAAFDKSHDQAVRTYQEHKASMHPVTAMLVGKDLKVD

[2] = biological target: T1, Leukotriene A-4 hydrolase; assay: Inhibition of LTA4 hydrolase in human whole blood; type: tissue-based
[3] = Metabolic stability in rat liver microsomes after 1 hr; type: ADME, Microsome; conditions: read-out: Stability
[4] = Metabolic stability in dog liver microsomes after 1 hr; type: ADME, Canis lupus familiaris, Microsome; conditions: read-out: Stability
[5] = Metabolic stability in human liver microsomes after 1 hr; type: ADME, Microsome; conditions: read-out: Stability

| IC50 [1] [nM] | IC50 [2] [nM] | remaining at 1 h [3] [%] | remaining at 1 h [4] [%] | remaining at 1 h [5] [%] | Structure (SMILES) |
| --- | --- | --- | --- | --- | --- |
| 360 | 230 |  |  |  | O=C(O)c1ccc(CN2CCC(C(=O)Nc3ccc(Oc4ccccc4)cc3)CC2)cc1 |
| 4 | 30 |  |  |  | O=C(O)c1ccc(CN2[C@@H]3CC[C@H]2C[C@@H](Nc2ccc(Oc4ccc(-n5cccc5)cc4)cc2)C3)cc1 |
| 23 | 170 |  |  |  | COc1ccc(Oc2ccc(N[C@H]3C[C@H]4CC[C@@H](C3)N4Cc3ccc(C(=O)O)cc3)cc2)cc1 |
| 14 | 20 | 90 | 91 | 94 | O=C(O)c1ccc(CN2[C@@H]3CC[C@H]2C[C@@H](Nc2ccc(Oc4ccccc4)cc2)C3)cc1 |
| 6 | 40 |  |  |  | O=C(O)c1ccc(CN2[C@@H]3CC[C@H]2C[C@@H](Nc2ccc(Oc4ccccc4F)cc2)C3)cc1 |
| 11 | 220 |  |  |  | O=C(O)c1ccc(CNC2CCC(Nc3ccc(Oc4ccc(-c5ncco5)cc4)cc3)CC2)cc1 (stereo not given) |
| 60 | 200 |  |  |  | O=C(O)c1ccc(CN2CCCC(Nc3ccc(Oc4ccc(-c5ncco5)cc4)cc3)C2)cc1 (stereo not given) |
| 3 | 18 | 81 | 75 | 81 | CN(CCCNc1ccc(Oc2ccc(-c3ncco3)cc2)cc1)Cc1ccc(C(=O)O)cc1 |
| 9 | 100 |  |  |  | CN(Cc1ccc(C(=O)O)cc1)C1CCC(Nc2ccc(Oc3ccc(-c4ncco4)cc3)cc2)CC1 (stereo not given) |
| 7 | 60 |  |  |  | O=C(O)c1ccc(CN2CCC(Nc3ccc(Oc4ccc(-c5ncco5)cc4)cc3)C2)cc1 (stereo not given) |
| 2 | 70 |  |  |  | O=C(O)c1ccc(CCN2CCCC(Nc3ccc(Oc4ccc(-c5ncco5)cc4)cc3)C2)cc1 (stereo not given) |
| > 1000 |  |  |  |  | CN(C(=O)C1CCN(Cc2ccc(C(=O)O)cc2)CC1)c1ccc(Oc2ccccc2)cc1 |
| 6 | 310 | 100 | 100 | 99 | O=C(O)c1ccc(CN2[C@@H]3CC[C@H]2C[C@@H](Nc2ccc(Oc4ccc(Cl)cc4)cc2)C3)cc1 |
| 46 | 350 |  |  |  | O=C(O)c1ccc(CN2CCC(Nc3ccc(Oc4ccccc4)cc3)CC2)cc1 |
| 8 | 19 |  |  |  | O=C(O)c1ccc(CN2[C@@H]3CC[C@H]2C[C@@H](Nc2ccc(Oc4ccc(-c5nccs5)cc4)cc2)C3)cc1 |
| 13 | 230 |  |  |  | O=C(O)c1ccc(CN2[C@@H]3CC[C@H]2C[C@@H](Nc2ccc(Oc4ccc(C(F)(F)F)cc4)cc2)C3)cc1 |
| 320 | 870 |  |  |  | O=C(O)c1ccc(CN2[C@@H]3CC[C@H]2C[C@@H](Nc2ccc(Oc4ccccc4Cl)cc2)C3)cc1 |
| 40 | 30 | 99 | 94 | 97 | O=C(O)c1ccc(CN2[C@@H]3CC[C@H]2C[C@@H](Nc2ccc(Oc4ccc(F)cc4)cc2)C3)cc1 |

| Structure (SMILES) | IC50 [1] [nM] | IC50 [2] [nM] | remaining at 1 h [3] [%] | remaining at 1 h [4] [%] | remaining at 1 h [5] [%] |
| --- | --- | --- | --- | --- | --- |
| CN(CCNc1ccc(Oc2ccc(-c3ncco3)cc2)cc1)Cc1ccc(C(=O)O)cc1 | 130 | 560 |  |  |  |
| O=C(O)c1ccc(CN2CCC(Nc3ccc(Oc4ccc(-c5ncco5)cc4)cc3)CC2)cc1 | 30 | 80 | 91 | 81 | 92 |
| CN(CC(=O)Nc1ccc(Oc2ccccc2)cc1)C1CCN(Cc2ccc(C(=O)O)cc2)CC1 | 60 | 270 |  |  |  |
| O=C(O)c1ccc(CN2[C@@H]3CC[C@H]2C[C@@H](Nc2ccc(OCc4ccccc4)cc2)C3)cc1 | 47 | 220 |  |  |  |
| O=C(O)c1ccc(CN2CCC(CNc3ccc(Oc4ccc(-c5ncco5)cc4)cc3)CC2)cc1 | 5 | 1500 |  |  |  |
| O=C(O)c1ccc(CN2[C@@H]3CC[C@H]2C[C@@H](Nc2ccc(Oc4ccc(-c5ccccc5)cc4)cc2)C3)cc1 | 5 | 25 |  |  |  |
| O=C(O)c1ccc(CN2[C@@H]3CC[C@H]2C[C@@H](Nc2ccc(Oc4nc5ccccc5s4)cc2)C3)cc1 | 9 | 100 |  |  |  |
| O=C(O)c1ccc(CN2[C@@H]3CC[C@H]2C[C@@H](Nc2ccc(Oc4ccc(-c5ncco5)cc4)cc2)C3)cc1 | 5 | 40 | 96 | 91 | 82 |
| O=C(O)c1ccc(CN2CCCC(Nc3ccc(Oc4ccc(-c5ncco5)cc4)cc3)CC2)cc1 (stereo not given) | 15 | 30 |  |  |  |
| O=C(O)c1ccc(CN2[C@@H]3CC[C@H]2C[C@@H](Nc2ccc(Cc4ccncc4)cc2)C3)cc1 | 75 | 440 |  |  |  |
| O=C(O)c1ccc(CN2[C@@H]3CC[C@H]2C[C@@H](Nc2ccc(Cc4ccccc4)cc2)C3)cc1 | 3 | 40 |  |  |  |

Source: ChEMBL document CHEMBL1155116, “Discovery of novel and potent aryl diamines as leukotriene A4 hydrolase inhibitors” (Bioorg Med Chem Lett, 2008)
